According to publication PMC4402683, “FIBT versus florbetaben and PiB: a preclinical comparison study with amyloid-PET in transgenic mice” (EJNMMI Research, 2015):

Legend:
Aβ plaques = assay: Small animal PET imaging in APP/PS1 tg and control mice (cortex + hippocampus-to-cerebellum PET ratio); assay type: in vivo, mouse; settings: for SUVRtg/SUVRctl (tg/ctl): ratio of APP/PS1 tg to control mice SUVR; for Mean PET ratio (SUVR ± SD), cortex + hippocampus to cerebellum: 36 to 45 min
Method: Inhalation anesthesia with isoflurane was used and the eyes of the animals were protected with dexpanthenol eye ointment. Anesthesia was initiated 15 min ahead of experiments by placing the animal in a cage ventilated with oxygen (3.5 L/min) containing 3% isoflurane. Throughout the experiments, anesthesia was maintained by adjusting the isoflurane content (0.6% to 2%) to ensure a respiratory rate in the range 80 to 100/min. For i.v. injection, we inserted a tailored catheter into the lateral tail vein. Simultaneously with a slow bolus injection of 50 to 200 μL of tracer solution, we started the PET with scan duration of 45 min in 3D list mode on a Siemens Inveon system (axial field-of-view of 12.7 cm with a bore diameter of 12 cm, approximately 1.4 mm full-width-at-half-maximum spatial resolution; Siemens Healthcare, Erlangen, Germany). After tracer injection, we flushed the catheter with 50 to 100 μL of isotonic sodium chloride solution. During the scan, a heating pad prevented hypothermia. The radioactivity in the syringe was measured immediately before and after injection with a Capintec CRC® 15R (Capintec Inc, 6 Arrow Road Ramsey, NJ, USA) dose calibrator.
Based on our experience, variance of macroscopic brain anatomy is very low across mice with the same genetic background. Therefore, the creation of a MRI template was done by manual co-registration of all MR images based on prominent brain structures and the overall cortical contour and calculation of a mean image (Pmod 3.3, Pmod Technologies, Zurich, Switzerland). Structures outside of the brain were not considered in the manual co-registration process. Two major volume-of-interests (VOIs) were defined on the MRI template, one comprising the full cortex including hippocampus, the other comprising the full cerebellum. The same VOIs were then used for reading out co-registered PET data of a mean image of the final 10 min of the scan (minute 36 to 45). The VOIs were chosen based on previous findings in a voxel-based analysis of cerebral PiB uptake and its correlation with the underlying Aβ pathology in this mouse model. PET data was normalized and corrected for decay and dead time. The images were reconstructed by means of filtered back-projection (FBP), using a ramp filter with a cutoff at the Nyquist frequency into 45 frames (45 × 60 s). The image volume consisted of 128 × 128 × 159 voxels, each of a size of 0.78 × 0.78 × 0.80 mm. The PET images were manually co-registered with the MRI template. This was done by using the wash-in phase of the tracer to identify the brain contour for alignment with the MRI template. We scaled the PET images to percentage of injected dose per cubic centimeter. We then applied these VOIs to the co-registered PET images and exported the VOI values to Microsoft Excel 2010 in order to calculate cortex + hippocampus-to-cerebellum ratios (further referred to as PET ratios).
We tested the tg/ctl ratios for significance. First, we performed a one-way ANOVA between the three groups showing significance.

Aβ deposits = assay: Ex vivo autoradiography, cortex/cerebellum uptake ratio; assay type: in vivo, mouse; settings: n ≥ 3
Method: In the present study, ex vivo autoradiography of [^18F]FIBT and [^18F]Florbetaben (Figure SI-1) were performed following a published procedure (Manook et al., 2012).
Figure SI-1. [^18F]FIBT and [^18F]Florbetaben autoradiography and cortex/ cerebellum uptake ratio (n≥ 3). Images of digital ex vivo autoradiography of a 12 µm thick axial section of age- and gender matched control (A and C) and APP/PS1 tg mouse brain (B and D). [^18F]FIBT (A and B), and [^18F]Florbetaben (C and D).

[1] = Lipophilicity (log Doct/PBS) by partition between 1-octanol and PBS; assay type: physicochemical; settings: 1-octanol/PBS pH 7.4, mean ± SD, N = 6
Method: Lipophilicity of the employed compounds was determined by a conventional partition method between 1-octanol and phosphate buffered saline (PBS), pH 7.4. The 1-octanol was saturated with PBS before use. Briefly, the no-carrier-added tracers, contained in 0.2 mL PBS, were added 0.2 mL of 1-octanol in a 1.5-mL polypropylene Eppendorf vial. The vial was sealed and vigorously shaken at room temperature for 5 min. The mixture was then centrifuged at 3,000 g for 10 min. A 100 μL aliquot from each of the two phases was drawn and their radioactivity content was determined in a NaI (Tl) well-type detector. The log Doct/PBS was calculated as follows: log Doct/PBS = log (radioactivity concentration in the 1-octanol phase/radioactivity concentration in the PBS phase). The reported values represent the mean of six independent measurements.

Aβ aggregates [2] = target: Aβ aggregates; design: method as in PMID 24900362; settings: versus [^3H]PiB; cited from earlier work
Aβ aggregates [3] = settings: post mortem AD brain homogenates; cited from earlier work
[4] = Ex vivo brain uptake studies in BALB/c mice; design: species or system mouse; settings: BALB/c mice without Aβ pathology, compared to [^18F]FIBT
Method: Ex vivo brain uptake studies were performed in male BALB/c mice (mean ± SD body weight: 23 ± 2 g). […] Groups of mice were killed at 5 and 30 min p.i. Radioactivity of weighted brain samples was measured in a γ-counter (Wallac 1480-011 Automatic Gamma Counter, PerkinElmer, Waltham, MA, USA). Data are expressed as percent of the injected dose per gram tissue (% I.D./g; mean ± SD, N = 5).

[5] = APP/PS1 tg mice (N = 4), 24-month-old

| Log D oct/PBS [1] | logD at 5 min ([1]; read-out: Log D oct/PBS) | Initial brain uptake ([4]; 5 min p.i.) | Brain tracer retention ([4]; 30 min p.i.) | Structure (SMILES) | SUVRtg/SUVRctl (tg/ctl) (Aβ plaques) | Ctx/Clb ratio (Aβ deposits; APP/PS1 tg mouse brain) | Ctx/Clb ratio (Aβ deposits; Ctl mouse brain) | Ki (Aβ aggregates [2]) [nM] | Kd (Aβ aggregates [3]) [nM] | Mean PET ratio (SUVR ± SD), cortex + hippocampus to cerebellum (Aβ plaques; [5]) | Mean PET ratio (SUVR ± SD), cortex + hippocampus to cerebellum (Aβ plaques; C57BL6/J control mice (N = 3)) |
| --- | --- | --- | --- | --- | --- | --- | --- | --- | --- | --- | --- |
|  |  |  |  | CNc1ccc(-c2nc3ccc(O)cc3s2)cc1 [[^11C]PiB, Pittsburgh compound B] | 2.11 ± 0.24 |  |  |  |  |  |  |
| 1.92 ± 0.06 |  |  |  | CNc1ccc(-c2cn3c(n2)sc2cc(OCC[18F])ccc23)cc1 [[^18F]FIBT, 2-(p-methylaminophenyl)-7-(2-[^18F]fluoroethoxy)imidazo[2,1-b]benzothiazole] | 1.78 ± 0.16 | 4.7 ± 0.3 | 1.1 ± 0.1 | 2.1 ± 0.8 | 0.7 ± 0.2 | 1.68 ± 0.15 | 0.95 ± 0.02 |
|  | 1.58 ± 0.13 | lower initial uptake | higher tracer retention | CNc1ccc(/C=C/c2ccc(OCCOCCOCCF)cc2)cc1 [[^18F]florbetaben, florbetaben] | 1.50 ± 0.06 | 2.0 ± 0.3 | 1.3 ± 0.1 |  | 6.7 ± 0.3 | 1.35 ± 0.06 | 0.90 ± 0.01 |
